pIC50: −log10 of the molar value.

From ChEMBL document CHEMBL5532653, “Dual inhibitors of HDAC and other epigenetic regulators: A novel strategy for cancer treatment” (Eur J Med Chem, 2024) come the findings set out here.

Data set [1] addresses Histone deacetylase 3 (Homo sapiens, UniProt O15379). The data set can be described thus: Inhibition of HDAC3 (unknown origin) using biotinylated histone H3 KAc peptide (1 to 21 residues) as substrate by HTRF assay. For orientation: Time-resolved FRET reads energy transfer from a long-lived donor to a nearby acceptor.
Data set [2] concerns the target Bromodomain testis-specific protein (Homo sapiens, UniProt Q58F21). The data set can be described thus: Inhibition of BRDT BD2 (unknown origin) by TR-FRET assay.
For data set [3], the target named is T1, Bromodomain-containing protein 3 (Homo sapiens, UniProt Q15059). The data set can be described thus: Inhibition of BRD3 BD2 (unknown origin) incubated for 180 min by TR-FRET assay.
T1 sequence (Q15059 whole entry): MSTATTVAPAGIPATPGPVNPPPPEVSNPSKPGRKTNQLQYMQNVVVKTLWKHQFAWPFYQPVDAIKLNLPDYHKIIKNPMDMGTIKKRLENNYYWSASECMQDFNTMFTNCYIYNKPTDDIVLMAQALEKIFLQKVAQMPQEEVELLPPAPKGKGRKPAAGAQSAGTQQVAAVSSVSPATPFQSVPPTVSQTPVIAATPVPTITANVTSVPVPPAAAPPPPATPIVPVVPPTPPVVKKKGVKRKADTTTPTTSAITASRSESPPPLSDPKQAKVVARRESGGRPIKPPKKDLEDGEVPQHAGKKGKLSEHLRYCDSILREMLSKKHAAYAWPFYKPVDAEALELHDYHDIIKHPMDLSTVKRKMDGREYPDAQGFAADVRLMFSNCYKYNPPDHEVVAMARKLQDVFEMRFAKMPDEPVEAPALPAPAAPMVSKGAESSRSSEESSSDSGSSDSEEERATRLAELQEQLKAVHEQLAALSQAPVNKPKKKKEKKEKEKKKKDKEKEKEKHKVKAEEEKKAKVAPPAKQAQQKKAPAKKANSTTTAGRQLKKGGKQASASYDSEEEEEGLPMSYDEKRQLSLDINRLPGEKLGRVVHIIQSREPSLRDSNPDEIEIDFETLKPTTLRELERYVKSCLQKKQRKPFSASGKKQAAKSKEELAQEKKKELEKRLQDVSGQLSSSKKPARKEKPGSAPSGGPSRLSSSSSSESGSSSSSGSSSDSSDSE
Data set [4] addresses T2, Histone deacetylase 2 (Homo sapiens, UniProt Q92769). The data set can be described thus: Inhibition of HDAC2 (unknown origin) by fluorescence based analysis.
Data set [5] deals with Histone deacetylase 8 (Homo sapiens, UniProt Q9BY41). The data set can be described thus: Inhibition of HDAC8 (unknown origin) using Fluoro-Substrate Peptide as substrate by fluorescence assay.
Chain of Histone deacetylase 8 (Q9BY41 whole entry): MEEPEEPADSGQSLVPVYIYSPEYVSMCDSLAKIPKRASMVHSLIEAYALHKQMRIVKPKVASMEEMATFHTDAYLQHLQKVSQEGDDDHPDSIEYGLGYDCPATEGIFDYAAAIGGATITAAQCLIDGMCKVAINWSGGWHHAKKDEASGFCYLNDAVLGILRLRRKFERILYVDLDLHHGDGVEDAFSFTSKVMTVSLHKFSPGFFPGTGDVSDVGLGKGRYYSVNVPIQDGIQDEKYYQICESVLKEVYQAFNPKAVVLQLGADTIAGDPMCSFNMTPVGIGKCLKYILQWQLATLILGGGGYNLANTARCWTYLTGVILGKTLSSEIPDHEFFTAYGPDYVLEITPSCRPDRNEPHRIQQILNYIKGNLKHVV
Data set [6] concerns the target T3, Bromodomain-containing protein 2 (Homo sapiens, UniProt P25440). The data set can be described thus: Inhibition of recombinant BRD2 BD1 (unknown origin) incubated for 120 mins by TR-FRET assay.
Data set [7] concerns the target T3, Bromodomain-containing protein 2. The data set can be described thus: Inhibition of BRD2 BD2 (unknown origin) incubated for 180 min by TR-FRET assay.
The target in data set [8] is T4, Protein deacetylase HDAC6 (Homo sapiens, UniProt Q9UBN7).
T4 sequence (Q9UBN7 whole entry): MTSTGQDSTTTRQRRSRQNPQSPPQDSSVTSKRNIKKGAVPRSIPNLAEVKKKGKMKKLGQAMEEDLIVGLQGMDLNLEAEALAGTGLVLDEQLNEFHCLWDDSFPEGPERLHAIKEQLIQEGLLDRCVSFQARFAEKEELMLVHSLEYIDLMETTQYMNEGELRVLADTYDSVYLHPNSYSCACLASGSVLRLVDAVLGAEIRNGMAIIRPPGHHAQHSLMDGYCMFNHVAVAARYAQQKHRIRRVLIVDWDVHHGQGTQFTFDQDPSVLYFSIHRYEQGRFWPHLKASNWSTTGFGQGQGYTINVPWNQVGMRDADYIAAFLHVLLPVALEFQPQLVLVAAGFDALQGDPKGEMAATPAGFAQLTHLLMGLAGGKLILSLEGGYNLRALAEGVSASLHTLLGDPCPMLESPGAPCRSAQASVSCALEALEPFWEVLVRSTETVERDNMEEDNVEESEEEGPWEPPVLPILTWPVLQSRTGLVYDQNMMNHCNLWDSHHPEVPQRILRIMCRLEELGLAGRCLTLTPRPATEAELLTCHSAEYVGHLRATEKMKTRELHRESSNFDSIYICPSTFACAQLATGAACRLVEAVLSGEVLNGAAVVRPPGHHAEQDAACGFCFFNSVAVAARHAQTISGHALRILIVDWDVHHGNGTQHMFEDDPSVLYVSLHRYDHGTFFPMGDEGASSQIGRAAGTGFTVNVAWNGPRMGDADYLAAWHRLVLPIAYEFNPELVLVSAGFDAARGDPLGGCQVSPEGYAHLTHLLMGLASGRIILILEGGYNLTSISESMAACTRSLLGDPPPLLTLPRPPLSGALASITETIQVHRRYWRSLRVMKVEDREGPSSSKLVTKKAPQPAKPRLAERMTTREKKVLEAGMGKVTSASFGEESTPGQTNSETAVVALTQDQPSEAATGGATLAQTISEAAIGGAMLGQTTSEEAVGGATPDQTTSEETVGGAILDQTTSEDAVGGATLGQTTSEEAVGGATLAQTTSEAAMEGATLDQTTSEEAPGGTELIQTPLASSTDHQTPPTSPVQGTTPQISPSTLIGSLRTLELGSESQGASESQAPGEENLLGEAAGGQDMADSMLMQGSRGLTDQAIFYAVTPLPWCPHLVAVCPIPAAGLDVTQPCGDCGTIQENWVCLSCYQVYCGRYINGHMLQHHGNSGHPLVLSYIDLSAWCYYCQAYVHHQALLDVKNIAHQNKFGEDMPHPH
The data set can be described thus: Inhibition of HDAC6 (unknown origin) by fluorescence based assay.

Data set [9] concerns the target T1, Bromodomain-containing protein 3. The data set can be described thus: Inhibition of recombinant BRD3 BD1 (unknown origin) incubated for 120 mins by TR-FRET assay.
The test system of data set [10] is K562. The data set can be described thus: Antiproliferative activity against human K562 cells assessed as reduction in cell viability by MTT assay. It counts as functional, cell-based. On the technique in general: Formazan colour is commonly taken as a measure of viable cells.
The subject of data set [11] is HeLa. The data set can be described thus: Antiproliferative activity against human HeLa cells assessed as reduction in cell viability by MTT assay. The data set is classed as functional, cell-based.
For data set [12], the system named is MCF7. The data set can be described thus: Antiproliferative activity against human MCF7 cells assessed as reduction in cell growth incubated for 72 hrs by MTT assay. It counts as functional, cell-based. The note with it: MCF7, 72 h.
Data set [13] is described as follows: Cytotoxicity against human HEK293T cells assessed as cell growth inhibition by MTT assay. It counts as toxicity, cell-based, HEK-293T.
The subject of data set [14] is A549. The data set can be described thus: Antiproliferative activity against human A549 cells assessed as reduction in cell viability measured after 48 hrs by MTT assay. The settings on record: A549, 48 h. It counts as functional, cell-based.
In data set [15] the target is DNMT3B-DNMT3L complex (Homo sapiens, UniProt Q9UBC3). The data set can be described thus: Inhibition of DNMT3B/3L (unknown origin). The data set is classed as protein-complex assay.
In data set [16] the target is T5, DNA (cytosine-5)-methyltransferase 1 (Homo sapiens, UniProt P26358). The data set can be described thus: Inhibition of DNMT1 (unknown origin).
T5 sequence (P26358 whole entry): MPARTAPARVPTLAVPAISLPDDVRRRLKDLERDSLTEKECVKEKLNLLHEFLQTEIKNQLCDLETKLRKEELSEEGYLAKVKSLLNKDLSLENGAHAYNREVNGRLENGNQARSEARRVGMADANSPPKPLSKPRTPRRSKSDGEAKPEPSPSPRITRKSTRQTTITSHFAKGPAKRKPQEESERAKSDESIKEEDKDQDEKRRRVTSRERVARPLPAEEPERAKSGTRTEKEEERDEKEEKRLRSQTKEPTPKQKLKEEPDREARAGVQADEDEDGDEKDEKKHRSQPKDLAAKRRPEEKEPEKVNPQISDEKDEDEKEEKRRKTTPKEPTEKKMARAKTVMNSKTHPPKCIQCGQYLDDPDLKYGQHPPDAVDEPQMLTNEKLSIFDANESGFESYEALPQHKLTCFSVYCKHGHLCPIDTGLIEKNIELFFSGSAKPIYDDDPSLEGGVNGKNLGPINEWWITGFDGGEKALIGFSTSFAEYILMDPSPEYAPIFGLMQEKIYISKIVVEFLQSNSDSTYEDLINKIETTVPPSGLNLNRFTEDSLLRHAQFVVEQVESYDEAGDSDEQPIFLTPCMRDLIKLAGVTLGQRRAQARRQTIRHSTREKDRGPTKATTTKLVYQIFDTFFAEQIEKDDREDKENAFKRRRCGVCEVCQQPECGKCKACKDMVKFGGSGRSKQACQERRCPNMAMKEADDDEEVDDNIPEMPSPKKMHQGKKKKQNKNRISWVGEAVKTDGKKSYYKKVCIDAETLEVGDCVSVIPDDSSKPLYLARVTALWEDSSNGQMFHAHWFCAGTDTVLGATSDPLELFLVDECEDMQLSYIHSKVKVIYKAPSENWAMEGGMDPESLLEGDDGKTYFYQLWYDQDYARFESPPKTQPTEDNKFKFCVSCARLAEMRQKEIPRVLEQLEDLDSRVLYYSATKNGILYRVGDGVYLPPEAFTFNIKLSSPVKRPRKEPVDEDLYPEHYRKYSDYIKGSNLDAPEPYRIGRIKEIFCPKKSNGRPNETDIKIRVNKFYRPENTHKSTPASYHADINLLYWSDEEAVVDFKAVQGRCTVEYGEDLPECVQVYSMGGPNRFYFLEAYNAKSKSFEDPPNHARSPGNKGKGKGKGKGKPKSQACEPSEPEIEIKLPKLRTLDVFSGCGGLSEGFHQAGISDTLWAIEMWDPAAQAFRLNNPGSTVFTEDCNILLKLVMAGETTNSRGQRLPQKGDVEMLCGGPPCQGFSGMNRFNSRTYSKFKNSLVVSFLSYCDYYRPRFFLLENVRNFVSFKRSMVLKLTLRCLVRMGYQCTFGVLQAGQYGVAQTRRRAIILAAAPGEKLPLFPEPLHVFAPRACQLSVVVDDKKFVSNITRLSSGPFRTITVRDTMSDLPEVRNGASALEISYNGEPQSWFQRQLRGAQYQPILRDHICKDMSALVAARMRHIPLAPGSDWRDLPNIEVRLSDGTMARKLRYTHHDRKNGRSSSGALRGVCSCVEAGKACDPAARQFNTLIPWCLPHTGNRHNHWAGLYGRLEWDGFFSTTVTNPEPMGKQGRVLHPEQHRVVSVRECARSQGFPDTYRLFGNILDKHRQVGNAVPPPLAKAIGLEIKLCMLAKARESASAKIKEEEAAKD
For data set [17], the system named is MDA-MB-231. The data set can be described thus: Antiproliferative activity against human MDA-MB-231 cells assessed as reduction in cell growth by MTT assay. The data set is classed as functional, cell-based.
Data set [18] has as its target T4, Protein deacetylase HDAC6. The data set can be described thus: Inhibition of HDAC6 (unknown origin) using Ac-peptide as substrate preincubated for 15 mins followed by substrate addition and measured after 1 hr by HTRF analysis.
For data set [19], the system named is MCF7. The data set can be described thus: Antiproliferative activity against human MCF7 cells assessed as reduction in cell growth by MTT assay. The data set is classed as functional, cell-based.
Data set [20] addresses DNMT3A2/3L complex (Homo sapiens, UniProt Q9Y6K1). The data set can be described thus: Inhibition of DNMT3A/DNMT3L (unknown origin). It counts as protein-complex assay.
For data set [21], the system named is A549. The data set can be described thus: Antiproliferative activity against human A549 cells assessed as reduction in cell growth by MTT assay. The data set is classed as functional, cell-based.
The target of data set [22] is T6, Histone deacetylase 1 (Homo sapiens, UniProt Q13547). The data set can be described thus: Inhibition of HDAC1 (unknown origin) using ArgHisLysLys(Ac) as substrate by fluorescence based analysis.
T6 sequence (Q13547 whole entry): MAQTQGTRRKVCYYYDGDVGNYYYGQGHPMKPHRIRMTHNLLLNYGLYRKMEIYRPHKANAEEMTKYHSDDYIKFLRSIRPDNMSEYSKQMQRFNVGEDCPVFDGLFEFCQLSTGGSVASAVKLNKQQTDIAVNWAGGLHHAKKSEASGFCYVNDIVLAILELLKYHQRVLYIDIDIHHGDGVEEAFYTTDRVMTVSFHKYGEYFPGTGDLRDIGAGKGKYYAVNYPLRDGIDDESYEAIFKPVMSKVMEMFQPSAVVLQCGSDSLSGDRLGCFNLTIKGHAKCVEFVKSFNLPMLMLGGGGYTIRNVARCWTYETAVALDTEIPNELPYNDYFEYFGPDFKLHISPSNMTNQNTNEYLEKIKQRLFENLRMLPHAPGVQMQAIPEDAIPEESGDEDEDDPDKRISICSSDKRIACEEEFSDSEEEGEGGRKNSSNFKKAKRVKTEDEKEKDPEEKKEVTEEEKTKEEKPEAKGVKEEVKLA
For data set [23], the target named is T4, Protein deacetylase HDAC6. The data set can be described thus: Inhibition of HDAC6 (unknown origin) using expressed in Sf9 cells using Boc-Lys(acetyI)-AMC as substrate preincubated for 1 hr followed by substrate addition and measured after 30 mins by fluorescence based analysis.
Data set [24] has as its target T6, Histone deacetylase 1. The data set can be described thus: Inhibition of HDAC1 (unknown origin) using Boc-Lys(Ac)-AMC or Boc-Lys(Tfa)-AMC as substrate incubated for 1 hr by fluorescence based analysis.
Data set [25] concerns the target T5, DNA (cytosine-5)-methyltransferase 1. The data set can be described thus: Inhibition of DNMT1 (unknown origin) using SAM as substrate at 1 uM by fluorescence assay relative to control.
Data set [26] relates to U-937. The data set can be described thus: Antiproliferative activity against human U-937 cells assessed as reduction in cell growth incubated for 72 hrs by MTT assay. The settings on record: U-937, 72 h. It counts as functional, cell-based.
In data set [27] the target is T4, Protein deacetylase HDAC6. The data set can be described thus: Inhibition of human recombinant HDAC6 in HeLa cells using Boc-Lys(Ac)-AMC or Boc-Lys(Tfa)-AMC as fluorogenic substrate preincubated for 10 mins followed by substrate addition and measured after 1 hr by fluorescence based analysis. It counts as cell-based.
Data set [28] addresses T2, Histone deacetylase 2. The data set can be described thus: Inhibition of human recombinant HDAC2 in HeLa cells using Boc-Lys(Ac)-AMC or Boc-Lys(Tfa)-AMC as fluorogenic substrate preincubated for 10 mins followed by substrate addition and measured after 1 hr by fluorescence based analysis. It counts as cell-based.
The target in data set [29] is Histone deacetylase. The data set can be described thus: Inhibition of human recombinant HDAC in HeLa cells using Boc-Lys(Ac)-AMC or Boc-Lys(Tfa)-AMC as fluorogenic substrate preincubated for 10 mins followed by substrate addition and measured after 1 hr by fluorescence based analysis. It counts as cell-based.
For data set [30], the system named is SK-MEL-5. The data set can be described thus: Antiproliferative activity against human SK-MEL-5 cells assessed as reduction in cell viability incubated for 72 hrs by MTT assay. The data set is classed as functional, cell-based. The settings on record: SK-MEL-5, 72 h.
Data set [31] is described as follows: Antiproliferative activity against human SCCIC1 cells assessed as cell growth inhibition measured after 72 hrs. The data set is classed as functional, cell-based. The note with it: SCCIC1, 72 h.
The nature of data set [32]: Antiproliferative activity against human WM983B cells assessed as reduction in cell growth incubated for 72 hrs by MTT assay. The data set is classed as functional, cell-based.
The nature of data set [33]: Antiproliferative activity against human MET-1 cells assessed as reduction in cell viability incubated for 72 hrs by MTT assay. It counts as functional, cell-based. The settings on record: MET-1, 72 h.
The nature of data set [34]: Inhibition of HDAC1 ([…] residues) (unknown origin) FLAG-tagged CoREST1 (unknown origin) transfected in HEK293F cells using fluorogenic p53 (RHKK(Ac)AMC) as substrate preincubated for 30 mins followed by substrate addition and measured after 15 mins by fluorescence based analysis. On the set-up: species or system Homo sapiens.
Data set [35] deals with D283 Med. The data set can be described thus: Antiproliferative activity against human D283 Med cells assessed as inhibition of cell growth measured after 72 hrs by CellTiter-Glo assay. The data set is classed as functional, cell-based.
In data set [36] the test system is NCI-H460. The data set can be described thus: Antiproliferative activity against human NCI-H460 cells assessed as reduction in cell growth measured after 72 hrs by MTT assay. The data set is classed as functional, cell-based. The note with it: NCI-H460, 72 h.
Data set [37] has as its system MEF. The data set can be described thus: Antiproliferative activity against mouse MEF cells assessed as cell growth inhibition measured after 48 hrs by MTT assay. It counts as functional, cell-based.
The nature of data set [38]: Cytotoxicity against human CLL cells assessed as reduction in cell viability at 5 uM relative to control. The data set is classed as toxicity, cell-based.
The subject of data set [39] is U-937. The data set can be described thus: Antiproliferative activity against human U-937 cells assessed as inhibition of cell growth at 3 uM measured after 72 hrs by CellTiter-Glo luminescent cell viability assay relative to control. It counts as functional. A general note: Cellular ATP, detected with luciferase, serves as a proxy for viable cell number.

T3 sequence (P25440 whole entry): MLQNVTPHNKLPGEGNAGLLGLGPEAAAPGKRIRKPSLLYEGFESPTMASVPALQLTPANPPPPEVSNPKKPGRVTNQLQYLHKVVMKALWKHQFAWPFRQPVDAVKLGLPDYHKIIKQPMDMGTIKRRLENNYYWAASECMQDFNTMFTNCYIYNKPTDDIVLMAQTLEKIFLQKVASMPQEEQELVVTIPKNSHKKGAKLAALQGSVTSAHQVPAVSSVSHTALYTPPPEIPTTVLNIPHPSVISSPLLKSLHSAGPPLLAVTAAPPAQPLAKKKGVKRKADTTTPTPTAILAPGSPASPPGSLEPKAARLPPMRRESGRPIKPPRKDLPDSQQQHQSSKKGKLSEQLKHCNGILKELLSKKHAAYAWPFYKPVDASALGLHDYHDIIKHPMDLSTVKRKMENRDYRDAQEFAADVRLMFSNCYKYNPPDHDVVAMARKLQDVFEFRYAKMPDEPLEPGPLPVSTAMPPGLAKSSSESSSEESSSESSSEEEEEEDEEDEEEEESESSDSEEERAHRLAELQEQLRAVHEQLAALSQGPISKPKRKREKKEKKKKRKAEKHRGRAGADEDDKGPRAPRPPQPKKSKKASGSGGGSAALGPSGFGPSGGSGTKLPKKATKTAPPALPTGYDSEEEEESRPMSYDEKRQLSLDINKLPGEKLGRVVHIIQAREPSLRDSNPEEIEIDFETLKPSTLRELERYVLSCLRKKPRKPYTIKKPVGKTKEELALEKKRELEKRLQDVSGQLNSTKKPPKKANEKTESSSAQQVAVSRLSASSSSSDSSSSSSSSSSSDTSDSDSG
T2 sequence (Q92769 whole entry): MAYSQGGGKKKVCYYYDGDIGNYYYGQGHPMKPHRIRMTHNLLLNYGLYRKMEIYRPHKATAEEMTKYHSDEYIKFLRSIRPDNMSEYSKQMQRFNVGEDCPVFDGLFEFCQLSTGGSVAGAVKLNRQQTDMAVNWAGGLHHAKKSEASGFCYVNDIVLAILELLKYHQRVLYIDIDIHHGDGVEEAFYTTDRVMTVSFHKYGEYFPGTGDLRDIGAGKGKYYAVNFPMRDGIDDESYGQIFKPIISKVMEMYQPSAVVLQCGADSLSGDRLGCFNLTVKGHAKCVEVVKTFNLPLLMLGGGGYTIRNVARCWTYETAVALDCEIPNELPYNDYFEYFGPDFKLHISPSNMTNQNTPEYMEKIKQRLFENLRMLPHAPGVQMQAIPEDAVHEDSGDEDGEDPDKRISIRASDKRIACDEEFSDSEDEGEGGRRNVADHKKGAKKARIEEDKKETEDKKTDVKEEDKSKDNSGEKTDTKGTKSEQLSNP
Chain of Histone deacetylase 3 (O15379 whole entry, the tested form may be a part): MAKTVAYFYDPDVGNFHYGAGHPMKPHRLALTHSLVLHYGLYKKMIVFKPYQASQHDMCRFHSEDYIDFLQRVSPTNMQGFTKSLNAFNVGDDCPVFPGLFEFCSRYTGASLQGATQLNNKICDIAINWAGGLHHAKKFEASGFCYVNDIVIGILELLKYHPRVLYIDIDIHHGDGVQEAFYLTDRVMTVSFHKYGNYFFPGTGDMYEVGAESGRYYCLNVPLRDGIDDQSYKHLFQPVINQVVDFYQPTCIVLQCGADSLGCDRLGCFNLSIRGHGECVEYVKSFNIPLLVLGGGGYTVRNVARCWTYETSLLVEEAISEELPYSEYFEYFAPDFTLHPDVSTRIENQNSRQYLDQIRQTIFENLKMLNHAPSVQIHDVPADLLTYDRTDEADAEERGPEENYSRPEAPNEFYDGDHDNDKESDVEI

For orientation: pIC50 means −log10 of the IC50, conventionally taken in molar units. With `Cc1sc2c(c1C)C(c1ccc(Cl)cc1)=N[C@@H](CC(=O)Nc1ccc(C(=O)NO)cc1)c1nnc(C)n1-2`, the pIC50 was 7.41 in [1]; 4.49 in data set [2]; 7.42 in [3]; 7.28 in data set [4]; 6.72 in data set [5]; 6.50 in data set [6]. Further, the pIC50 is 7.11 in data set [7], 7.47 in [8] and 6.88 in data set [9].
As for `COc1ccc2c(NC3CCN(Cc4ccccc4)CC3)nc(NCCNC(=O)CCCCC(=O)NO)nc2c1`, the pIC50 is 5.24 in data set [10]; 4.81 in data set [11]; 4.43 in [12]; 4.70 in [13]; 4.44 in data set [14].
`O=C(NO)C1CCN(C[C@@H](O)COC(Cn2c3ccccc3c3ccccc32)Cn2c3ccccc3c3ccccc32)CC1`: the pIC50 is 5.88 in data set [15]; 5.69 in data set [16]; 5.33 in data set [17]; < 4.00 in [18]; 5.73 in data set [19]; 6.03 in data set [20]. Also, the figures for the pIC50 in data set [21] and in data set [22] were 5.41 and 5.38, respectively.
The term inhibition denotes the relative decrease from the control value, in per cent. With `Nc1ncnc2c1ncn2Cc1ccc(-c2cn(CCCCCCC(=O)NO)nn2)cc1`, the pIC50 in data set [23] is 8.32; in data set [24] it was 8.62; in data set [26] it was 5.89. Also, the inhibition in [25] worked out at 44.5%.
By IC50 is commonly meant the point on the concentration scale where inhibition reaches its midpoint. In the case of `Cc1noc(C)c1-c1ccc2c(c1)c(Cc1ccc(F)cc1)cn2CCCCCCC(=O)NO`, the pIC50 was < 6.00 in data set [27] and 7.54 in data set [28]. The half-maximal inhibitory concentration (IC50) in [29] is listed as 291 nM.
For `Nc1ccccc1NC(=O)c1ccc(CCCC(=O)Nc2ccc(C3CC3N)cc2)cc1` (centres undefined), the pIC50 in [30] is 6.89; in data set [31], 7.39; in data set [32], 6.70; in data set [33] it was 8.22; in data set [34], 6.69.
In the case of `Cn1cc(-c2ccc(S(=O)(=O)n3ccc(/C=C/C(=O)Nc4ccccc4N)c3)cc2)cn1` [DOMATINOSTAT], in [35], the pIC50 was 6.82.
Turning to `Cn1c(CCCCCCC(=O)NO)nc2cc(N(CCCl)CCCl)ccc21` [TINOSTAMUSTINE], the pIC50 in data set [36] was 5.66; in data set [37], 5.24. The Activity in [38] was ~ 100 nM.
On to `Cc1sc2c(c1C)C(c1ccc(Cl)cc1)=N[C@@H](CC(=O)NCCCC(=O)Nc1ccccc1N)c1nnc(C)n1-2`, for which the inhibition at 3 µM in data set [39] worked out at 84%.
